Here are results for 7 compounds from patent publication US12429487B2, “Neurofilament protein for guiding therapeutic intervention in amyotrophic lateral sclerosis” (Biogen MA Inc., priority 2018, dated 2025).

For series [1], the system named is ALS patients. The following applies: EMPOWER, 12 months, vs placebo. The source says: EMPOWER was a Phase 3 global randomized clinical trial (RCT) of the safety and efficacy of dexpramipexole in the treatment of ALS conducted at 81 academic medical centers enrolling 943 adults (see Cudkowicz M E et al., Lancet Neurol. 2013 November; 12(11):1059-67).
The subjects included in the EMPOWER study had to have a diagnosis of possible, probable, or definite ALS, have had ALS symptoms for fewer than 24 months, have an SVC value that was at least 65% of the predicted value, and no significant comorbidities.
In the study, the subjects were allocated in a 1:1 ratio to treatment with dexpramipexole or placebo for 12 months, […]

Series [2] deals with plasma neurofilament heavy chain (NFH). The following applies: EMPOWER, vs placebo, FIG. 2.
Excerpt: Determination of baseline as well as longitudinal plasma neurofilament heavy chain (NFH) concentrations in the clinical trial of dexpramipexole, EMPOWER, and assessment of their relationship to clinical outcomes including survival and the rates of decline of muscle strength (assessed by hand-held dynamometry [HHD]), slow vital capacity (SVC), and ALSFRS-R).
Plasma neurofilament heavy (NFH), measured using a NFH assay on the Ella, an automated microfluidic cartridge based immunoassay platform from Protein Simple.
In series [3] the test system is people with ALS. The following applies: cited from earlier work.
In series [4] the test system is pNfH and NfL. The series can be described thus: SAD/MAD clinical trial in SOD1 ALS patients: plasma and CSF pNfH and NfL. It is filed as in vivo, human. How it is done: (§1) A double-blind, randomized, placebo-controlled, clinical trial was conducted in SOD1 ALS patients. The trial involved single and multiple ascending dose (SAD/MAD) studies. In the MAD portion, participants received 5 doses of study drug over approximately 3 months. Fifty adult participants with SOD1 mutation were randomized 3:1 (ASO: placebo) per cohort to receive 20 mg, 40 mg, 60 mg, or 100 mg of placebo or a SOD-1 decreasing ASO-ASO1 (SEQ ID NO:8).
Baseline pNfH and NfL levels were highest in fast progressing patients and correlated with disease activity (as measured by ALSFRS-R prerandomization slope). […] In FIGS. 7A-7D, overall placebo (n=12) is the solid line at, near, or above the 1.0 baseline measure throughout the study; overall ASO1 100 mg treatment (n=10) is the solid line declining below the 1.0 baseline measure throughout the study; fast progressing placebo (n=4) is the dotted line at, near, or above the 1.0 baseline measure throughout the study; and fast progressing ASO1 100 mg treatment (n=4) is the dotted line declining below the 1.0 baseline measure throughout the study. pNfH levels were assessed using the ProteinSimple™ Simple Plex Ella immunoassay. NfL levels were assessed using the Quanterix Simoa NfL Advantage assay.

The test system of series [5] is SOD1^G93A mice. Nature of the series: SOD1^G93A mice: weight, rotarod, survival after i.c.v. bolus. The class given is in vivo, mouse. The following applies: 300 μg bolus at 50 and 94 days of age. The procedure:
To investigate whether a SOD1-lowering ASO strategy could delay disease parameters, SOD1^G93A mice (B6.CgTg(SOD1*G93A)Gur/J) were infused Intracerebroventricular […] with bolus doses of 300 μg ASO1 at 50 and 94 days of age. Weight and performance on rotarod were tested weekly.

In series [6] the test system is SOD1^G93A mice. Nature of the series: SOD1^G93A mice: CMAP and neuromuscular junction innervation. The class given is in vivo, mouse. As to conditions: for compound muscle action potential (CMAP): 100 μg intraventricularly once at 5 weeks of age, next 12 weeks. An excerpt:
To test whether SOD1 reduction by ASO could affect markers of disease, […] in compound muscle action potential (CMAP), neuromuscular junction innervation, and serum phospho-neurofilament heavy chain (pNfH) levels. In SOD1^G93Amice, CMAP declines over time, preceding the loss of motor neurons.

In series [7] the test system is serum phospho-neurofilament heavy chain (pNfH). Nature of the series: SOD1^G93A mice: serum pNfH by ELLA microfluidic ELISA. As to conditions: single dose 300 μg at 5 weeks; 8 and 10 weeks of age; vs control ASO, FIG. 4. It is filed as in vivo, mouse. The procedure:
pNfH increases in CSF and serum in ALS rodent models, human patients with ALS, and other neurodegenerative diseases. To look at phosphorylated neurofilament heavy chain levels in the serum, blood was collected at baseline (5 weeks) before i.e.v. injection, and then again at 8 and 10 weeks of age from the SOD1^G93A mutant mice injected once at 5 weeks of age with a single dose of 300 μg ASO1). pNfH serum levels were measured through the ELLA microfluidic ELISA platform (Protein Simple) according to the manufacturer's instructions. Briefly, a maximum of 100 μl blood was collected through facial vein puncture at the indicated time points. Serum samples were prepared by centrifugation of BD Vacutainer SST tubes (BD Diagnostics) and stored at −80° C. until used.

Series [8] has as its system CSF SOD1 protein. Nature of the series: SAD/MAD clinical trial in SOD1 ALS patients: CSF SOD1 concentration. The following applies: 40 mg, 60 mg and 100 mg cohorts; maximal at 100 mg, Day 85. The class given is in vivo, human. How it is done:
as §1

The subject of series [9] is SOD1 mRNA. The series can be described thus: SOD1 mRNA lowering in human neuroblastoma cell line SH-SY5Y. The class given is cell-based. As to conditions: SH-SY5Y cells.
Series [10] concerns SOD1^G93A rats. The series can be described thus: SOD1^G93A rats: weight loss onset and survival after intrathecal bolus. It is filed as in vivo, rat. The following applies: 1000 μg intrathecal bolus, 65-day-old rats. The procedure: SOD1^G93A rats (Taconic Biosciences, model 2148) received a 30-μl intrathecal bolus injection via polyethylene catheter placed between the L3 and L5 vertebrae of the lumber spinal cord. […] All ASOs were diluted in aCSF. All treatment groups were sexual phenotype- and litter-matched to control for drift in copy count or sexual phenotype-induced variances.

Series [11] deals with SOD1 ALS patients. Nature of the series: SAD/MAD clinical trial in SOD1 ALS patients: ALSFRS-R and SVC. It is filed as in vivo, human. The following applies: vs placebo. The procedure: as §1

“Also recorded” adds a separate entry of the source. Read-outs that look alike come from different tables or passages of the source. Oligonucleotides are written 5' to 3', each unit as a sugar letter and its base; * is a phosphorothioate linkage, no mark a phosphodiester; rarer units and linkages stand in square brackets, end groups in braces. Plain capitals give the bases only. e = 2'-O-(2-methoxyethyl) (MOE); k = constrained ethyl (cEt); [5mC] = 5-methylcytosine; d = 2'-deoxy (DNA)

For the compound `CCCN[C@@H]1CCc2nc(N)sc2C1` [dexpramipexole], the “ALS symptoms / clinical efficacy” value in series [1] (listed as depramipexole) was “did not reduce ALS symptoms”; in [1] (listed as dexpramiexole), “without clinical efficacy”. Further, in series [2], the “longitudinal plasma NFH course” value is on record as “no difference”.
Consider `CC1=NN(c2ccccc2)C(=O)C1` [edaravone], for which, in series [3], the “disease progression / decline in daily functioning” value was “reduction the decline in daily functioning”; the side effects result is “bruising, gait disturbance, hives, swelling and shortness of breath”.
On to `Nc1nc2ccc(OC(F)(F)F)cc2s1` [riluzole], for which, in [3], the “disease progression / decline in daily functioning” value is “appears to slow the disease's progression in some people with ALS”; the side effects entry was “dizziness, gastrointestinal conditions and liver function changes”.
For “CAoGGoATACATTTCTACoAGoCT (antisense CAGGATACATTTCTACAGCT; modified backbone linkages at marked places, type not given here) [ASO1]”, the “plasma pNfH levels” value in series [4] (100 mg over time vs placebo, FIG. 7A) is reported as “reduction”. Also, in [4] (100 mg over time vs placebo, FIG. 7B), the “plasma NfL levels” value was “reduction”. The “CSF NfL levels” value in series [4] (100 mg over time vs placebo, FIG. 7D) is “reduction”. In addition, the “CSF pNfH levels” value in series [4] (100 mg vs placebo, overall) was “Lowering of CSF pNfH; also recorded: reduction”. Also, the “CSF pNfH levels” value in series [4] (patients with fast-progressing SOD1 mutations, vs placebo) is listed as “reduction in CSF pNfH levels”. Moreover, in [5], the “maintained weight, days longer than inactive ASO” value worked out at 26 days and the “median survival longer compared with inactive ASO” value came out at 37 days. Also, in [5] (vs inactive ASO), the extension of survival was found to be 22% and the performance on rotarod result is reported as “performed better on rotarod”. The “compound muscle action potential (CMAP)” value in series [6] was “maintained CMAP”. In addition, the “innervation of the tibialis anterior muscles” value in [6] (single dose 300 μg at 5 weeks of age, FIG. 3) was “maintained innervation”. The “serum pNfH levels” value in series [7] is listed as “lower levels of pNfH”. Also, in series [8], the “CSF SOD1 concentrations, change from baseline” value is listed as “Reductions from baseline”. Further, in [9], the “SOD1 mRNA” value is reported as “potently lowered SOD1 mRNA in a dose-dependent manner”. Also, the “maintained weight, days longer than aCSF” value in [10] was found to be 70 days. Also, the clinical decline result in [11] (patients with fast-progressing SOD1 mutations) is given as “slowing of clinical decline”. For the same compound, in [11] (FIG. 6A), the “functional decline (ALSFRS-R)” value is given as “slowing of functional decline”. Moreover, the “decline in respiratory function (SVC)” value in series [11] (FIG. 6B) is “slowing of decline in respiratory function”.
In the case of “CCGTCGCCCTTCAGCACGCA (antisense e[5mC]*e[5mC]*eG*eT*e[5mC]*dG*d[5mC]*d[5mC]*d[5mC]*dT*dT*d[5mC]*dA*dG*d[5mC]*eA*e[5mC]*eG*e[5mC]*eA) [compound 333611, reference compound]”, in series [10], the “onset of weight loss, median” value is listed as 139 days.
Consider “CCoToAoTAGGACTATCCAoGoGoAA (antisense CCTATAGGACTATCCAGGAA; chemically modified at marked places, type not given here) [Inactive ASO (in vivo), reference compound]”, for which, in series [6], the “compound muscle action potential (CMAP)” value was “reduced by more than half”. In series [6] (tibialis anterior, FIG. 3), the “denervation of muscle endplates” value was “more than 75%”.
As for “TToAoATGTTTATCAoGoGAT (antisense eT*eTeAeA*dT*dG*dT*dT*dT*dA*dT*d[5mC]*kAkGeG*eA*eT) [ASO2]”, the “SOD1 mRNA” value in series [9] is on record as “potently lowered SOD1 mRNA in a dose-dependent manner”. For the same compound, the “maintained weight, days longer than aCSF” value in series [10] is reported as 67 days.
